Key:
Test in all cases: relative viability (nuclei count vs DMSO), 5 days (fraction); higher = more cells survive
[1] = system: SK-LU-1
How it was run: (§1)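 After 5 days of treatment, lung cancer cells in 1536-well plates were fixed and stained in a single step (final 0.05% Triton X-100, 1% formaldehyde, 1 ug/ml Hoechst) and their nuclei counted on 4× images. Treatment had been applied by pin tool the day after seeding as one drug alone or as a fixed anchor-drug dose with five library-drug doses (not always all listed) in √10 steps. Relative viability is the nuclei count of treated wells divided by that of vehicle wells, and values are medians of duplicate plates.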

[2] = system: NCI-H2126
How it was run: as §1

[3] = system: NCI-H23
How it was run: as §1

[4] = system: ABC-1
How it was run: as §1

[5] = system: NCI-H1944
How it was run: as §1

[6] = system: EMC-BAC-2
How it was run: as §1

[7] = system: NCI-H2023
How it was run: as §1

[8] = system: HCC-78
How it was run: as §1

[9] = system: LC-2-ad
How it was run: as §1

[10] = system: HCC-15
How it was run: as §1

[11] = system: HOP-62
How it was run: as §1

[12] = system: NCI-H838; conditions: first compound 0.0002 µM
How it was run: as §1

`CC(=O)O[C@@]12CO[C@@H]1C[C@H](O)[C@@]1(C)C(=O)[C@H](O)C3=C(C)[C@@H](OC(=O)[C@H](O)[C@@H](NC(=O)OC(C)(C)C)c4ccccc4)C[C@@](O)([C@@H](OC(=O)c4ccccc4)[C@H]21)C3(C)C` [Docetaxel] + Cc1nc(Nc2ncc(C(=O)Nc3c(C)cccc3Cl)s2)cc(N2CCN(CCO)CC2)n1 [Dasatinib] (partner 0.075 µM) was tested, and the relative viability ([1]; first compound 0.0002 µM) was 0.175, the relative viability ([1]; first compound 0.000632 µM) was 0.156 and the relative viability ([1]; first compound 0.006325 µM) was 0.122. For the same compound, the relative viability ([1]; first compound 0.02 µM) was 0.132, the relative viability ([2]; first compound 0.0002 µM) was 0.659 and the relative viability ([2]; first compound 0.000632 µM) was 0.573. It also gave a relative viability ([2]; first compound 0.002 µM) of 0.363, a relative viability ([2]; first compound 0.006325 µM) of 0.339 and a relative viability ([3]; first compound 0.0002 µM) of 0.838. For the same compound, the relative viability ([3]; first compound 0.000632 µM) was 0.777, the relative viability ([3]; first compound 0.002 µM) was 0.483 and the relative viability ([3]; first compound 0.006325 µM) was 0.188. For the same compound, the relative viability ([3]; first compound 0.02 µM) was 0.0867, the relative viability ([4]; first compound 0.0002 µM) was 0.533 and the relative viability ([4]; first compound 0.000632 µM) was 0.434. For the same compound, the relative viability ([4]; first compound 0.002 µM) was 0.388, the relative viability ([4]; first compound 0.006325 µM) was 0.36 and the relative viability ([4]; first compound 0.02 µM) was 0.252. For the same compound, the relative viability ([5]; first compound 0.0002 µM) was 0.216, the relative viability ([5]; first compound 0.000632 µM) was 0.228 and the relative viability ([5]; first compound 0.002 µM) was 0.204. It also gave a relative viability ([5]; first compound 0.006325 µM) of 0.178, a relative viability ([5]; first compound 0.02 µM) of 0.105 and a relative viability ([6]; first compound 0.0002 µM) of 0.298. It also gave a relative viability ([6]; first compound 0.000632 µM) of 0.232, a relative viability ([6]; first compound 0.002 µM) of 0.192 and a relative viability ([6]; first compound 0.006325 µM) of 0.228. For the same compound, the relative viability ([6]; first compound 0.02 µM) was 0.132, the relative viability ([7]; first compound 0.0002 µM) was 0.467 and the relative viability ([7]; first compound 0.000632 µM) was 0.339. For the same compound, the relative viability ([7]; first compound 0.002 µM) was 0.134, the relative viability ([7]; first compound 0.006325 µM) was 0.123 and the relative viability ([7]; first compound 0.02 µM) was 0.0567. For the same compound, the relative viability ([8]; first compound 0.0002 µM) was 0.352, the relative viability ([8]; first compound 0.000632 µM) was 0.3 and the relative viability ([8]; first compound 0.002 µM) was 0.235. For the same compound, the relative viability ([8]; first compound 0.006325 µM) was 0.248, the relative viability ([8]; first compound 0.02 µM) was 0.3 and the relative viability ([9]; first compound 0.0002 µM) was 0.362. For the same compound, the relative viability ([9]; first compound 0.000632 µM) was 0.38, the relative viability ([9]; first compound 0.002 µM) was 0.28 and the relative viability ([9]; first compound 0.006325 µM) was 0.207. For the same compound, the relative viability ([10]; first compound 0.0002 µM) was 0.456, the relative viability ([10]; first compound 0.000632 µM) was 0.221 and the relative viability ([10]; first compound 0.002 µM) was 0.16. It also gave a relative viability ([10]; first compound 0.006325 µM) of 0.21, a relative viability ([10]; first compound 0.02 µM) of 0.115 and a relative viability ([11]; first compound 0.0002 µM) of 0.56. The relative viability ([11]; first compound 0.000632 µM) was 0.58, the relative viability ([11]; first compound 0.002 µM) was 0.309 and the relative viability ([11]; first compound 0.02 µM) was 0.155. It also gave a relative viability [12] of 0.318.

Source: the supplement of paper PMC10307832
